Where “and” joins values, the source holds several entries; their conditions need not be identical. Identical values can stand only once.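 In this assay, cells in 96-well plates receive the compound at five concentrations for 48 hours. Endpoints are linearly interpolated between the surrounding concentrations. Abbreviation: GI50, concentration required for 50% inhibition of growth. At the TGI there is no net growth.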
Tests used:
Assay in all cases: inhibition of tumour cell growth, NCI panel, 48 h
SF-539 CNS = tested on: SF-539 CNS
SNB-75 CNS = tested on: SNB-75 CNS
CAKI-1 renal = tested on: CAKI-1 renal
A498 renal = tested on: A498 renal
NCI-H23 lung = tested on: NCI-H23 lung
DU-145 prostate = tested on: DU-145 prostate
UO-31 renal = tested on: UO-31 renal
MALME-3M melanoma = tested on: MALME-3M melanoma
OVCAR-3 ovarian = tested on: OVCAR-3 ovarian
SN12C renal = tested on: SN12C renal

SMILES	TGI (SF-539 CNS)	TGI (SNB-75 CNS)	TGI (CAKI-1 renal)	TGI (A498 renal)	TGI (NCI-H23 lung)	TGI (DU-145 prostate)	TGI (UO-31 renal)	TGI (MALME-3M melanoma)	TGI (OVCAR-3 ovarian)	TGI (SN12C renal)	GI50 (CAKI-1 renal)	GI50 (A498 renal)	GI50 (DU-145 prostate)
COc1ccc(NC(=S)Nc2cccc(C)n2)cc1	> 100 µM	> 100 µM	> 100 µM	> 100 µM	> 100 µM	> 100 µM	> 100 µM	–	–	–	–	–	–
O=P1(C(O)c2ccccc2)N(Cc2ccccc2)[C@@H]2CCCC[C@H]2N1Cc1ccccc1 (some centres undefined)	45.6 µM	55.1 µM	> 100 µM	–	> 100 µM	> 100 µM	> 100 µM	73.1 µM	91.3 µM	43 µM	–	–	–
C/C(=C\CNc1ncnc2c1ncn2CCC#N)CO	> 100 µM	> 100 µM	> 100 µM	–	> 100 µM	> 100 µM	> 100 µM	> 100 µM	> 100 µM	> 100 µM	–	–	–
O=C1Cc2c([nH]c3c(Br)cccc23)-c2ccccc2N1	> 100 µM	> 100 µM	–	> 100 µM	> 100 µM	> 100 µM	> 100 µM	> 100 µM	> 100 µM	> 100 µM	–	–	–
Cc1cc(NS(=O)(=O)c2ccc(NC(NC(=O)OC(C)C)(C(F)(F)F)C(F)(F)F)cc2)nc(C)n1	> 100 µM	> 100 µM	> 100 µM	> 100 µM	> 100 µM	> 100 µM	–	> 100 µM	> 100 µM	> 100 µM	–	–	–
COc1ccc(Sc2ccccc2[N+](=O)[O-])cc1	> 100 µM	19.7 µM	–	> 100 µM	> 100 µM	–	> 100 µM	> 100 µM	58.9 µM	> 100 µM	–	–	–
Clc1cc2ncn(C3CCCO3)c2cc1Cl (centres undefined)	> 100 µM	> 100 µM	> 100 µM	–	> 100 µM	> 100 µM	53.6 µM	> 100 µM	> 100 µM	> 100 µM	–	–	–
COc1c(-c2nc3nc(N4CCN(C)CC4)ccc3[nH]2)cc(OC)c2c1nc(CCl)n2C	20.7 µM	29.8 µM	33.2 µM	–	47 µM	78.2 µM	32.8 µM	37.5 µM	81.5 µM	> 100 µM	–	–	–
N=c1sc(N2CCOCC2)nn1CC(=O)c1ccccc1	–	> 100 µM	> 100 µM	–	> 100 µM	> 100 µM	> 100 µM	> 100 µM	> 100 µM	> 100 µM	–	–	–
CCCCC(C)(C/C=C/[C@@H]1[C@@H](C(O)CCCCCC(=O)OC)C(=O)C[C@H]1O[Si](C)(C)C(C)(C)C)O[Si](C)(C)C (some centres undefined)	> 100 µM	> 100 µM	78.1 µM	–	> 100 µM	> 100 µM	> 100 µM	> 100 µM	> 100 µM	> 100 µM	–	–	–
COc1ccc(-c2cc(-c3ccc(Nc4ccnc5cc(C(F)(F)F)ccc45)cc3)nc(N)c2C#N)c2ccccc12	> 100 µM	> 100 µM	> 100 µM	> 100 µM	> 100 µM	> 100 µM	> 100 µM	> 100 µM	> 100 µM	–	–	–	–
CC1=C(C(=O)OC(C)(C)C)C(c2ccc([N+](=O)[O-])cc2)C(C(=O)OC(C)(C)C)=C(C)N1	34.9 µM	61.2 µM	56.4 µM	37.6 µM	45.3 µM	62.4 µM	33.5 µM	–	36.7 µM	35.4 µM	–	–	–
COC1=C(C)C(=O)C2=C(C1=O)C1C3CC4=C(C(=O)C(OC)=C(C)C4=O)C(CNC(=O)C(C)=O)N3C(C#N)C(C2)N1C (centres undefined)	–	–	0.126 µM	–	–	0.0862 µM	–	–	0.00533 µM and 0.0414 µM and < 0.0468 µM	0.348 µM and 0.144 µM	1.63 pM	0.0634 µM	0.0033 µM
Cn1c(=O)c2c(n(C)c1=O)n1c(=O)c3ccccc3nc1n2C	> 100 µM	> 100 µM	> 100 µM	> 100 µM	> 100 µM	> 100 µM	> 100 µM	–	> 100 µM	> 100 µM	–	–	–
O=C(Cn1c(-c2ccccc2)cc2ccccc21)N1CCOCC1	> 100 µM	–	> 100 µM	> 100 µM	> 100 µM	> 100 µM	> 100 µM	> 100 µM	> 100 µM	> 100 µM	–	–	–
Nc1c(/C=C/c2cc3cc(C4=NCCN4)ccc3o2)[nH]c2cc(C3=NCCN3)ccc12	> 100 µM	> 100 µM	> 100 µM	> 100 µM	> 100 µM	> 100 µM	> 100 µM	–	> 100 µM	> 100 µM	–	–	–
O=C(Nc1nc2ccc([N+](=O)[O-])cc2s1)c1cc([N+](=O)[O-])ccc1Cl	6.71 µM	9.61 µM	24.3 µM	7.42 µM	6.92 µM	31 µM	–	10.4 µM	9.64 µM	4.57 µM	–	–	–
COC(=O)C1=C(C)C(=O)C2(CCCCCC2C(=O)OC)C1 (centres undefined)	> 100 µM	> 100 µM	> 100 µM	> 100 µM	> 100 µM	–	> 100 µM	> 100 µM	–	> 100 µM	–	–	–
COC(=O)C1CCC(=S)N1C(C)=O (centres undefined)	–	> 100 µM	> 100 µM	> 100 µM	> 100 µM	> 100 µM	> 100 µM	> 100 µM	> 100 µM	–	–	–	–
CC1SCCc2nc3ccccc3n21 (centres undefined)	> 100 µM	> 100 µM	> 100 µM	> 100 µM	> 100 µM	> 100 µM	> 100 µM	–	> 100 µM	> 100 µM	–	–	–
O=C(C[N+]1(c2ccccc2)CCOCC1)c1ccccc1	–	> 100 µM	> 100 µM	> 100 µM	> 100 µM	> 100 µM	> 100 µM	> 100 µM	> 100 µM	> 100 µM	–	–	–
Cc1cccc2c1Oc1ncccc1C2NC(=O)CN(C)C (centres undefined)	> 10 µM	> 10 µM	–	–	> 10 µM	–	> 10 µM	> 10 µM	> 10 µM	> 10 µM	–	–	–
NNC(=O)COc1nc(-c2cccs2)nc2ccc(I)cc12	–	59 µM	44.1 µM	–	41.2 µM	50.7 µM	63.5 µM	45.1 µM	40.7 µM	92.2 µM	–	–	–
CC(=O)Nc1ccc(C(=O)NN2C(=O)CSC2c2ccccc2)cc1 (centres undefined)	> 100 µM	> 100 µM	–	> 100 µM	> 100 µM	> 100 µM	> 100 µM	–	> 100 µM	> 100 µM	–	–	–

Source: PubChem BioAssay (NCI)
